Literature values, collected in patent US8911790B2, “Solid composition containing a hypothiocyanite salt” (Alaxia SAS, priority 2011, dated 2014).

Details: hypothiocyanite ion, instability of the species

N#CSO [hypothiocyanite ion, hypothiocyanite]
half-life: less than 24 hours
